Measurements as given in US10793535B2, “Heterocyclic glutaminase inhibitors” (Calithera Biosciences, Inc., priority 2012, dated 2020).

What was measured:
[1] = test system: H2122 lung adenocarcinoma xenograft; experiment: Lung adenocarcinoma xenograft efficacy study; type: in vivo, mouse; conditions: 200 mg/kg orally BID for 23 days
Procedure: Female scid/beige mice (n=20) age 6-8 weeks were implanted subcutaneously with 1×10^7 H2122 lung adenocarcinoma cells per mouse suspended in PBS. […] For both groups, dosing was initiated 24 hours post-implant and continued orally BID for 23 days. Tumors were measured with calipers three times per week and tumor volume calculated using the formula tumor volume (mm^3)=(a×b^2/2) where ‘b’ is the smallest diameter and ‘a’ is the largest perpendicular diameter. **P-value <0.01 (Two-sided T-test).

[2] = Pharmacokinetic studies in rats; type: in vivo; conditions: female, Sprague-Dawley, plasma, Rat
Procedure: For PK studies performed in rats, groups of three female Sprague-Dawley Rats, age 7-10 weeks, with jugular vein cannulae were dosed orally by gavage (5-10 mL/kg) with test compounds. Serial blood samples were collected via the jugular vein cannulae at multiple time-points pre and post-dose. Blood samples were placed into K2 EDTA coated tubes on kept on ice. Samples were centrifuged at 2500×g for 10 minutes at 4° C. and plasma isolated. Plasma was stored at ˜70° C. until bioanalytical analysis.
(§1) The plasma samples were analyzed using Liquid chromatography tandem mass spectrometry (LC/MS/MS) methods. Frozen plasma samples were thawed on ice or room temperature. Aliquotes of study plasma samples and calibration samples prepared in the same matrix as the study samples were quenched in an organic solvent (methanol, acetonitrole or DMF) containing an internal standard. The mixtures were then centrifuged and filtered and the filtrates were injected to an LC/MS/MS system to determine concentrations of test compounds.

[3] = test system: RPMI-8226 multiple myeloma xenograft; experiment: Multiple myeloma xenograft study; type: in vivo, mouse; conditions: RPMI-8226 xenograft, 200 mg/kg orally BID for 28 days
Procedure: Female CB.17 SCID mice (n=20) age 8-12 weeks were implanted subcutaneously with 1×10^7 RPMI-8226 myeloma cells per mouse mixed 1:1 with Matrigel. […] For both groups, dosing was initiated when tumors reached a volume of 100-150 mm^3 and continued orally BID for 28 days. Tumors were measured with calipers two times per week and tumor volume calculated using the formula tumor volume (mm^3)=(a×b^2/2) where ‘b’ is the smallest diameter and ‘a’ is the largest perpendicular diameter. **P-value <0.01 (Two-sided T-test).

Caco-2 cell monolayers = experiment: Caco-2 permeability assay; type: in vitro ADME, human
Description: Caco-2 cells are commonly used in a confluent monolayer on a cell culture insert filter. When cultured in this format and under specific conditions, the cells become differentiated and polarized such that their phenotype, morphologically and functionally resembles the enterocytes lining the small intestine. The cell monolayer provides a physical and biochemical barrier to the passage of small molecules, and is widely used across the pharmaceutical industry as an in vitro model of the human small intestinal mucosa to predict the absorption of orally administered drugs (Hidalgo et al., Gastroenterology, 1989; Artursson, J. Pharm. Sci., 1990). The correlation between the in vitro apparent permeability (P ? app) across Caco-2 monolayers and the in vivo absorption is well established (Artursson et al., Biochem. Biophys. Res. Comm., 1991).
The present assay was used to determine the bidirectional permeability of the compounds of the invention through Caco-2 cell monolayers. Caco-2 cells were grown in confluent monolayers where the media of both the apical (A) and basolateral (B) sides were at pH 7.4. Compounds were dosed at 1 μM in the presence of 200 μM Lucifer Yellow, on the apical side (A→B) or the basolateral side (B→A) for assessment, in duplicate.
The absorption potential of compounds were classified as either Low (P-app<1×10^−6 cm/s) or High (P-app>1×10^−6 cm/s).

[4] = Pharmacokinetic studies in mice; type: in vivo; conditions: female, CD-1, mouse, plasma, po, 25% HPBCD/10 mM Citrate pH 2.2, Solution
Procedure: For PK studies performed in mice, female CD-1 mice, age 5-8 weeks, were dosed orally by gavage (10 mL/kg volume) with test compounds. At pre-determined time-points (e.g. 1, 3, and 6 hrs) post-dosing, groups of three mice were sacrificed by CO2 inhalation and blood collected via cardiac puncture. Blood samples were placed into K2 EDTA coated tubes and kept on ice. Samples were centrifuged at 2000×g for 10 minutes at 4° C. and plasma isolated. Plasma was stored at ˜70° C. until bioanalytical analysis.
as §1

P493-6 (myc "on") cells = experiment: Cell proliferation assay; type: cell-based; conditions: read-out: Cell prolif P493 72 h IC50; 72 h
Procedure: P493-6 (myc “on”) cells were maintained in growth media (RPMI-1640, 10% FBS, 2 mM glutamine, 100 units/ml Penicillin and 100 μg/ml streptomycin) at 37° C. with 5% CO2. For compound assay, P493-6 cells were plated in 96-well V-bottom plates on the day of compound addition in 50 μl of growth media at a cell density of 200,000 cells/ml (10,000 cells/well). Compounds were serially diluted in 100% DMSO at 200-times the final concentration. Compounds were diluted 100-fold into growth media and then 50 μl of this mixture was added to cell plates making the final concentration of DMSO 0.5%. Cells were incubated with compound for 72 hrs at 37° C. with 5% CO2 and analyzed for antiproliferative effects either by Cell Titer Glo (Promega) or FACS analysis using the Viacount (Millipore) kit on the Guava instrument.

[5] = test system: multiple myeloma cells (MM1S cells, RPMI-8226 cells); experiment: Treatment of multiple myeloma cells with a combination of drugs; type: cell-based; conditions: 72 hours, Cell Titer Glo, combination indices (Calcusyn)
Procedure: At the end of the incubation, cell viability was measured using Cell Titer Glo as per manufacturer's protocol (Promega, Madison, Wis.). Measured values for compound-treated cells were normalized to DMSO-treated cells and data is reported as a cell survival ratio with a value of 1 (one) corresponding to maximum cell survival and a value of 0 (zero) corresponding to no cell survival. Cell survival ratios for all compound treatments are represented as bar graphs. Combination indices were calculated using the Calcusyn program (biosoft.com) and reported for individual mixtures of compound 670 and pomalidomide [POM] (panels A &C) and individual mixtures of compound 670 and dexamethasone [DEX] (panels B & D). Compound mixtures that produced a synergistic anti-tumor activity are highlighted.

[6] = 25 mg/kg oral, 20% HPBCD/10 mM Citrate pH 2.0, Solution
[7] = 80 mg/kg oral, 65% HPBCD/10 mM Citrate pH 2.6, Solution
[8] = 250 mg/kg oral, 40% HPBCD/10 mM Citrate pH 2.2, Solution
[9] = 500 mg/kg oral, 40% HPBCD/10 mM Citrate pH 2.2, Solution

In the case of `O=C(Cc1cccc(OC(F)(F)F)c1)Nc1ccc(CCCCc2nnc(NC(=O)Cc3ccccn3)s2)nn1` [Compound 670], the tumor size [1] is reported as “reduced tumor size”, the Cmax [2, 6] is reported as 4.4 µM and the Tmax [2, 6] is reported as 1 h. For the same compound, the Cmax [2, 7] was 12.5 µM, the Tmax [2, 7] was 1 h and the Cmax [2, 8] was 9.9 µM. The Tmax [2, 8] was 24 h, the Cmax [2, 9] was 15.3 µM and the Tmax [2, 9] was 2 h. For the same compound, the tumor size [3] was “reduced tumor size”, the “Significant Efflux” value (Caco-2 cell monolayers) was “Yes (efflux ratios being significant when greater than or equal to 3 when the Papp (B→A) was greater than or equal to 1×10^−6 cm/s)” and the Cmax ([4]; 100 mg/kg, 100 mg/kg oral) was 5.75 µM. For the same compound, the Tmax ([4]; 100 mg/kg, 100 mg/kg oral) was 1 h, the Cmax ([4]; 200 mg/kg, 200 mg/kg oral) was 5.05 µM and the Tmax ([4]; 200 mg/kg, 200 mg/kg oral) was 1 h. The IC50 (P493-6 (myc "on") cells) was 30 nM, the “anti-tumor effect in combination with dexamethasone” value [5] was “synergizes” and the “anti-tumor effect in combination with pomalidomide” value [5] was “synergizes”.
